{"source": "PubChem BioAssay AID1249", "about": "(Columbia University Molecular Screening Center, 2008)", "note": "Activity calls are given as the source filed them. No rule for the calls is given here."}
{"assay": "modifiers of cytoskeleton assembly, confirmation, imaging, high-content imaging, retest and dose response (AID 1249);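 also: compound exposure lasted 24 h before fixation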;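 as to inhibition: plate controls were untreated cells for no effect and reference compound treated cells for full effect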", "conditions": "cell-based imaging, cytoskeleton assembly phenotype, high content; at 2 µM; stronger effect = higher value"}
{"molecule": "C=CC(=O)Nc1ccc(Br)cc1", "inhibition": "-1.2% (inactive)"}
{"molecule": "CN1C(=O)N(C)C(=O)C2(Cc3ccccc3N3CCOCC32)C1=O", "note": "(stereo unspecified)", "inhibition": "-1.2% (inactive)"}
{"molecule": "CCOC(=O)Cn1nnnc1CN(CCc1ccccc1)Cc1cc2cc(CC)ccc2[nH]c1=O", "inhibition": "1.3% (inactive)"}
{"molecule": "CNC(=O)c1ccccc1NC(=O)c1ccco1", "inhibition": "0.5% (inactive)"}
{"molecule": "CCCNS(=O)(=O)c1ccc2c(c1)CCCN2C(C)=O", "inhibition": "-1.4% (inactive)"}
{"molecule": "O=C(Nc1ccccc1)N1CCC(c2ccccc2)C1", "note": "(stereo unspecified)", "inhibition": "-9.2% (inactive)"}
{"molecule": "Cc1ccc2nc(CCc3nc4ccc(C)cc4o3)oc2c1", "inhibition": "5.4% (inactive)"}
{"molecule": "COc1ccc(S(=O)(=O)NC(CC(=O)NCc2ccco2)C(C)C)cc1", "note": "(stereo unspecified)", "inhibition": "-5.2% (inactive)"}
{"molecule": "COc1ccc(-c2nc(C#N)c(NCCCN(C)C)o2)cc1OC", "inhibition": "4.5% (inactive)"}
{"molecule": "CN=C(Nc1cc(C)nn1CCC#N)c1ccccc1F", "inhibition": "-24.5% (inactive)"}
{"molecule": "CCOC(=O)c1cnn(-c2nc(CC)nc3sc4c(c23)CCC4)c1N", "inhibition": "-4.7% (inactive)"}
{"molecule": "O=C(Cn1cccc1C(=O)c1ccccc1)NCCN1CCOCC1", "inhibition": "-4.4% (inactive)"}
{"molecule": "CC(C)(C)NC(=O)CSc1nsc(SCC(=O)NC(C)(C)C)c1C#N", "inhibition": "-0.7% (inactive)"}
{"molecule": "Cc1ccccc1-c1cc(-c2ccccc2O)on1", "inhibition": "-5.9% (inactive)"}
{"molecule": "CCCCNC(=O)CSc1cc(=O)n(C)c2ccccc12", "inhibition": "-21.1% (inactive)"}
{"molecule": "NC(=S)N/N=C/c1ccc(-c2ccc(Cl)c(Cl)c2)o1", "inhibition": "-6.9% (inactive)"}
{"molecule": "COC(=O)c1ccccc1NC(NC(=O)c1ccco1)C(=O)c1ccc(C)cc1", "note": "(stereo unspecified)", "inhibition": "2.9% (inactive)"}
{"molecule": "CCN1/C(=C\\C=C\\C2=[N+](CC)c3ccccc3C2(C)C)C(C)(C)c2ccccc21", "inhibition": "-15.4% (inactive)"}
{"molecule": "CC(Sc1nc(N)cc(=O)[nH]1)C(=O)NC1CCCCC1", "note": "(stereo unspecified)", "inhibition": "9% (inactive)"}
{"molecule": "O=C(NCc1ccccc1)NC1(C(=O)N2CCCC2)CCCCC1", "inhibition": "5.3% (inactive)"}
{"molecule": "O=C1CCCc2c1[nH]c1ccc(Cl)cc21", "inhibition": "-17.2% (inactive)"}
{"molecule": "O=C(O)c1cc2nc3c(c(C(F)(F)F)n2n1)CCc1ccccc1-3", "inhibition": "3.7% (inactive)"}
{"molecule": "O=[N+]([O-])c1ccc(O)c(/C=N/Nc2ccc(Cl)nn2)c1", "inhibition": "-6.8% (inactive)"}
{"molecule": "CC1C(c2ccccc2)C(C#N)(C#N)C2(C#N)C(=O)NC1(N)C2C", "note": "(stereo unspecified)", "inhibition": "0.4% (inactive)"}
{"molecule": "COc1ccc(-c2cc3ccccc3oc2=O)cc1NC(=O)c1ccc([N+](=O)[O-])o1", "inhibition": "-8.3% (inactive)"}
{"molecule": "C=C1N2CCC(CC2)C1(O)c1ccccc1C", "note": "(stereo unspecified)", "inhibition": "-0.8% (inactive)"}
{"molecule": "O=C(OCC(=O)N1CCN(c2ccccc2)CC1)c1ccc2ncsc2c1", "inhibition": "0.2% (inactive)"}
{"molecule": "COc1ccc(-c2nnc(SCC(=O)N3CCCc4ccccc43)o2)cc1OC", "inhibition": "-16.4% (inactive)"}
{"molecule": "CCOc1ccc2nc(C)cc(Nc3ccc4c(c3)OCCO4)c2c1", "inhibition": "7.5% (inactive)"}
{"molecule": "CCOC(=O)N1CCC(NC(=O)c2ccc(CS(=O)(=O)c3ccc(OC)cc3)o2)CC1", "inhibition": "-7.4% (inactive)"}
{"molecule": "O=C(CN1CCCCCC1=O)OCc1ncc(-c2ccccc2)o1", "inhibition": "-11.1% (inactive)"}
{"molecule": "CCCCCCCCCCn1c2c(c(=N)c3c1CCC3)CCC2", "inhibition": "-24.6% (inactive)"}
{"molecule": "CC(/C=C/c1ccco1)=N\\NC(=O)c1cc(C)[nH]n1", "inhibition": "-14.4% (inactive)"}
{"molecule": "CCOC(=O)Cn1c(SC)nc2sc3c(c2c1=O)CC(C)(C)OC3", "inhibition": "-24.8% (inactive)"}
{"molecule": "CCn1c(=O)cc(OCC(=O)NCc2ccco2)c2ccccc21", "inhibition": "-5% (inactive)"}
{"molecule": "CCNC(=O)CCn1nc(-c2ccc(Cl)cc2)c2ccccc2c1=O", "inhibition": "-0.2% (inactive)"}
{"molecule": "NC(=O)COC(=O)CCCc1c[nH]c2ccccc12", "inhibition": "2.3% (inactive)"}
{"molecule": "Cc1c(Cl)cccc1-n1ccnc1SCC(=O)O", "inhibition": "2.2% (inactive)"}
{"molecule": "CCCOc1ccc(/C(O)=C2/C(=O)C(=O)N(CCOC)C2c2cccnc2)cc1", "note": "(stereo unspecified)", "inhibition": "-4.5% (inactive)"}
{"molecule": "Cc1cc(NC(=O)C2C3C=CC(C3)C2C(=O)O)no1", "note": "(stereo unspecified)", "inhibition": "0.1% (inactive)"}
{"molecule": "Cc1nc(S(=O)(=O)N(C)Cc2ccccc2)c(C#N)c(C)c1Cl", "inhibition": "-5.1% (inactive)"}
{"molecule": "COC(=O)c1cscc1NC(C)=O", "inhibition": "13.2% (inactive)"}
{"molecule": "CCOc1ccc2[nH]c(C)c(CN3CCOCC3)c(=O)c2c1", "inhibition": "-4.5% (inactive)"}
{"molecule": "COc1ccc(-c2nc(-c3ccc(NC(=O)c4ccc(Br)o4)cc3)no2)cc1OC", "inhibition": "-10.3% (inactive)"}
{"molecule": "CCCCN(C(=O)NC(=O)Nc1cccc(C)c1C)S(C)(=O)=O", "inhibition": "1.6% (inactive)"}
{"molecule": "CC(=O)Cn1c(N2CCC(Cc3ccccc3)CC2)nc2c1c(=O)[nH]c(=O)n2C", "inhibition": "-5.3% (inactive)"}
{"molecule": "CCCCSc1nc(C)cc(SCC(=O)N/N=C/c2cccc(OC)c2O)n1", "inhibition": "-6.7% (inactive)"}
{"molecule": "COc1cccc(/C=N/Nc2nc(Nc3ccccc3)nc(-n3nc(C)cc3C)n2)c1O", "inhibition": "1.2% (inactive)"}
{"molecule": "CCCOC(=O)c1ccc(NC(=O)Oc2ccccc2)cc1", "inhibition": "-5.5% (inactive)"}
{"molecule": "Cc1cc(C)cc(OCc2nnc(SCC(=O)N3CCN(c4ccccc4)CC3)o2)c1", "inhibition": "-9.6% (inactive)"}
{"molecule": "CCOC(=O)C1CCN(Cc2ccccc2C)CC1", "inhibition": "5.4% (inactive)"}
{"molecule": "O=C(CSc1nc2ccccc2s1)NNC(=S)Nc1ccc(Br)cc1", "inhibition": "-0.6% (inactive)"}
{"molecule": "Oc1ccc(N=Nc2n[nH]c(-c3ccc(Cl)cc3)n2)cc1", "inhibition": "-2.5% (inactive)"}
{"molecule": "O=C(Nc1ccccc1)c1nnsc1S(=O)(=O)c1ccc(Cl)cc1", "inhibition": "5.3% (inactive)"}
{"molecule": "O=C(COC(=O)c1ccccc1C(=O)c1ccc(Cl)c([N+](=O)[O-])c1)NC1CCCCCC1", "inhibition": "-8.3% (inactive)"}
{"molecule": "CCCc1sc(N/N=C/c2ccccn2)nc1-c1ccc(Br)cc1", "inhibition": "-11.5% (inactive)"}
{"molecule": "CCOC(=O)C1=C(c2ccccc2)O/C(=C(/C#N)C(F)(F)F)S1", "inhibition": "2.3% (inactive)"}
{"molecule": "COc1cc(C(=O)N(Cc2ccco2)Cc2cc3ccccc3[nH]c2=O)cc(OC)c1OC", "inhibition": "-1% (inactive)"}
{"molecule": "O=C1Nc2ccc(S(=O)(=O)N3CCOCC3)c3cccc1c23", "inhibition": "0.5% (inactive)"}
{"molecule": "Cc1ccccc1Cn1nc(C)c(NC(=O)c2cc(-c3cccs3)on2)c1C", "inhibition": "3.8% (inactive)"}
{"molecule": "COC(=O)c1c(NC(=O)c2ccc(S(=O)(=O)N3CCOCC3)cc2)sc2c1CCN(C)C2", "inhibition": "-2.4% (inactive)"}
{"molecule": "N#CCc1nc2c3c4c(sc3ncn2n1)CCCC4", "inhibition": "-15.1% (inactive)"}
{"molecule": "Cc1ccc2[nH]c3c(c2c1)CCC3=O", "inhibition": "-8.6% (inactive)"}
{"molecule": "CC1CCCN(c2nc3ccsc3c(=O)s2)C1", "note": "(stereo unspecified)", "inhibition": "2.9% (inactive)"}
{"molecule": "CCOC(=O)N1CCN(C(=O)c2ccc3c(c2)NC(=O)C(N2CCOCC2)S3)CC1", "note": "(stereo unspecified)", "inhibition": "-8.5% (inactive)"}
{"molecule": "CCC1=NC(c2ccccc2Cl)N(O)C1(C)C", "note": "(stereo unspecified)", "inhibition": "7.9% (inactive)"}
{"molecule": "COc1ccc(OC)c(C(=O)c2coc3ccc(O)cc23)c1", "inhibition": "-8.7% (inactive)"}
{"molecule": "O=C(CCSc1nnc2scc(-c3ccccc3)n12)Nc1nc(-c2ccccc2)ns1", "inhibition": "-3.3% (inactive)"}
{"molecule": "CCOc1cc(NC(=O)c2ccco2)c(OCC)cc1NC(=O)CCC(=O)NCc1cccnc1", "inhibition": "5.4% (inactive)"}
{"molecule": "O=C(N/N=C/c1ccncc1)c1ccccc1", "inhibition": "1.1% (inactive)"}
{"molecule": "COc1ccc(Nc2nc(N3CCCC3)nc3ccccc23)c(OC)c1", "inhibition": "-12.3% (inactive)"}
{"molecule": "CCOc1ccccc1N1C(=O)NC(=O)C(CCc2ccncc2)(CCc2ccncc2)C1=O", "inhibition": "-4.8% (inactive)"}
{"molecule": "CCOc1ccc(C2/C(=C(\\O)c3c(C)[nH]c(C(=O)OC)c3C)C(=O)C(=O)N2CCN(C)C)cc1", "note": "(stereo unspecified)", "inhibition": "-9% (inactive)"}
{"molecule": "S=c1[nH]nc(COc2ccc3c(c2)OCO3)n1-c1ccccc1", "inhibition": "6.4% (inactive)"}
{"molecule": "Cc1cc(N2CCC(C)CC2)nc(-n2nc(C)cc2C)n1", "inhibition": "4.7% (inactive)"}
{"molecule": "NC(=O)c1c(NC(=O)Cc2cccs2)sc2c1CCC2", "inhibition": "6.6% (inactive)"}
{"molecule": "COC(=O)CN(c1ccc(F)cc1)S(=O)(=O)c1ccc2c(c1)OCCO2", "inhibition": "10.7% (inactive)"}
{"molecule": "CCOc1cc(C(=O)Nc2cccc3ncccc23)cc(OCC)c1OCC", "inhibition": "-20.6% (inactive)"}
{"molecule": "Cc1nccn1-c1ccc(C(F)(F)F)cc1NC=O", "inhibition": "-12.8% (inactive)"}
{"molecule": "O=C(NCc1ccco1)c1cc(-c2ccc(Cl)cc2)on1", "inhibition": "10.5% (inactive)"}
{"molecule": "O=S(=O)(Cc1ccccc1Cl)N1CCN(Cc2ccc3c(c2)OCO3)CC1", "inhibition": "41.5% (inactive)"}
{"molecule": "CCCC(C(=O)NC1CCCC1)N(CCCN1CCOCC1)C(=O)c1snc(C(N)=O)c1N", "note": "(stereo unspecified)", "inhibition": "-2.3% (inactive)"}
{"molecule": "CN(Cc1ccccc1)C(=O)c1ccccc1NC(=O)c1ccccc1", "inhibition": "5.1% (inactive)"}
{"molecule": "Cc1ccc(OCC(O)CNS(=O)(=O)c2ccccc2C(=O)N2CCCCC2)cc1", "note": "(stereo unspecified)", "inhibition": "-15.6% (inactive)"}
{"molecule": "O=c1c2ccccc2nc(/C=C/c2ccc([N+](=O)[O-])o2)n1CCCO", "inhibition": "-3.1% (inactive)"}
{"molecule": "Clc1ccc2nc(CSc3nc4ccccc4o3)cn2c1", "inhibition": "14.4% (inactive)"}
{"molecule": "C=CCc1ccccc1OCC(O)CNC", "note": "(stereo unspecified)", "inhibition": "2.3% (inactive)"}
{"molecule": "Cc1ccc(S(=O)(=O)c2cc(C#N)c(=O)[nH]c2N)cc1", "inhibition": "9.1% (inactive)"}
{"molecule": "COc1cccc(CSc2nc3ccccc3cc2C=O)c1", "inhibition": "3.2% (inactive)"}
{"molecule": "CSc1ccc(CNC2CN3CCC2CC3)cc1", "note": "(stereo unspecified)", "inhibition": "1.5% (inactive)"}
{"molecule": "CCc1ccc(C(=O)/C=C/c2ccc([N+](=O)[O-])o2)cc1", "inhibition": "-3.9% (inactive)"}
{"molecule": "Oc1ccc(Nc2nc(-c3ccc4ccccc4c3)cs2)cc1", "inhibition": "-9.7% (inactive)"}
{"molecule": "CCCCOCCCNC(=O)c1cccs1", "inhibition": "-7.7% (inactive)"}
{"molecule": "CCOC(=O)C1CCN(C(=O)c2cn(CCOC)c(=O)c3c2c2ccccc2n3C)CC1", "inhibition": "-1.6% (inactive)"}
{"molecule": "CC(C)(C)NC(=O)C1N(c2cccnc2)C(=O)C2C(C(=O)Nc3ccccc3F)C3(C)C=CC21O3", "note": "(stereo unspecified)", "inhibition": "-29.5% (inactive)"}
{"molecule": "CNC(=O)CN(c1ccc(OC)cc1)S(=O)(=O)c1ccc(F)cc1", "inhibition": "-9% (inactive)"}
{"molecule": "Cc1ccc(S(=O)(=O)N(CC(=O)NCc2ccco2)Cc2ccc(F)cc2)cc1", "inhibition": "-16.6% (inactive)"}
{"molecule": "CC(=O)Nc1ccc(S(=O)(=O)n2cnc(C)c2)cc1", "inhibition": "6.7% (inactive)"}
{"molecule": "CCOC(=O)c1ccc(NS(=O)C23CC4CC(CC(C4)C2)C3)cc1", "note": "(stereo unspecified)", "inhibition": "-10.9% (inactive)"}
{"assay": "modifiers of cytoskeleton assembly, confirmation, imaging, high-content imaging, retest and dose response (AID 1249);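 also: compound exposure lasted 24 h before fixation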;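 as to inhibition: plate controls were untreated cells for no effect and reference compound treated cells for full effect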", "conditions": "cell-based imaging, cytoskeleton assembly phenotype, high content; cell count; at 10 µM; stronger effect = lower value", "units": {"cell count": "%"}}
{"molecule": "COc1cc(C(=O)N/N=C/c2ccsc2C)cc(OC)c1OC", "cell count": 34.2}
{"molecule": "Cc1cccc2cc(C#N)c(SCC(=O)N3CC(=O)Nc4ccccc43)nc12", "cell count": 67.8}
